In patent EP4592274A1, “RADIOLABELED TYROSINE DERIVATIVE AND APPLICATION THEREOF” (OSAKA UNIVERSITY, priority 2022, dated 2024):

How the values were obtained:
PANC1 = test: Cellular uptake test (using PANC1); format: cell-based, human; conditions: compared to 211At-AAMT; for uptake speed: PANC1 cells
Method: • Cells to be used: PANC1 • Culture medium to be used: D-MEM (containing 10% FBS, 1% P/S)
Two days before a test day, a cell suspension was prepared in such a manner that the concentration of predetermined cells was 1 x 10^5 cells/mL in the same manner as in Test Example 1. The cell suspension was seeded in a 24-well multiculture plate at a volume of 0.5 mL per well. On the day of the test, cultures were confirmed to be subconfluent (which refers to a state where 70-80% of the well is covered in density). The cells were washed twice with warmed PBS(-) Buffer (166-23555, FUJIFILM Wako Pure Chemical Corporation), the culture medium was replaced with HBSS(-) Buffer (085-09355, FUJIFILM Wako Pure Chemical Corporation), and the plate was left to stand in an incubator (MINIcell-35, WakenBtech Co., Ltd) until an RI addition test.
^211At-AAMT-OMe, ^211At-AAMT-OEt, ^211At-AAMT-OPr, or ^211At-AAMT was added to the prepared cells at 10 µL/well. BCH (LAT1 inhibitor, 20 mM) or unlabeled AMT (α-methyl tyrosine, […]) was previously (15 minutes before) added (10 µg/mL). The cells were cultured (CO2 5%, 37°C), and after 30 minutes, the liquid was removed by suction using an aspirator. The cells were washed twice with PBS(-). The cells were lysed by adding 0.1N NaOH to obtain a lysate, and the radioactivity of the lysate was measured using a γ counter. After the radioactivity measurement, the lysate was loaded into a 96-well plate at a volume of 10 µL per well, the protein amount was measured by the BCA method, and the number of cells was corrected based on the protein amount. Absorbance was measured by MultiScanFC (Thermo Fisher). The uptake level of ^211At-AAMT-OMe, ^211At-AAMT-OEt, ^211-At-AAMT-OPr, or ^211At-AAMT into the cells (number of radioactivity counts/protein amount) was calculated.

[1] = Thin-layer chromatography (TLC) analysis of decomposition after production; format: physicochemical; conditions: 24 hours after purification; in sodium ascorbate aqueous solution (final concentration 1%)
Method: The crude product solution (1 µL) was analyzed by thin-layer chromatography (TLC). The sample was spotted on a thin-layer plate (silica gel 60F254), and a mixed solvent of acetonitrile/water (2/1) was used as a developing solvent. The thin-layer plate was exposed to an imaging plate (BAS IP MS 2025E, GE Healthcare) for about 15 min, and then analyzed by a bioimage analyzer (Tyhoon™ FLA-7000, Cytiva). The results are shown in Fig.2. ^211At-AAMT-OMe in the crude product solution was detected at Rf 0.80, and the radiochemical yield (RCY) was 81.3%.
Before purification, immediately after production, 3 hours after production, and 24 hours after production, ^211At-AAMT-OMe was analyzed by thin-layer chromatography (TLC) in the same manner as described above.
24 hours after production, (R)-^211At-AAMT-OMe was analyzed by thin-layer chromatography (TLC) in the same manner as described above.
24 hours after production, ^211At-AAMT-OEt was analyzed by thin-layer chromatography (TLC) in the same manner as described above.
24 hours after production, ^211At-AAMT-OPr was analyzed by thin-layer chromatography (TLC) in the same manner as described above.
24 hours after production, ^211At-AAMPhe-OMe was analyzed by thin-layer chromatography (TLC) in the same manner as described above.

[2] = test system: human pancreatic cancer cell line, PANC1; conditions: up to 21 days after administration, 1 MBq per mouse
Method: Tumor sizes and body weights were measured over time after the administration. The experiment was terminated 21 days after administration. It should be noted that in Fig. 21 and Fig. 22, "OMe" is ^211At-AAMT-OMe and "OEt" is ^211At-AAMT-OEt.

[3] = test system: human pancreatic cancer cell line, PANC1; test: Measurement of accumulated amounts of 211At-labeled compounds in tumors of PANC1 transplanted mice (Test Example 5); format: in vivo; conditions: 0.1 MBq per mouse via tail vein
Method: Radiation doses before and after the administration were measured, and a difference between them was defined as an injected dose (ID). Ten minutes and one hour after administration, the mice were anesthetized by isoflurane inhalation, the tumors were isolated by autopsy in chronological order, and their radiation doses and weights were measured using a gamma counter (2480 Wizard^2, PerkinElmer) and a semimicro scale (Shimadzu Corporation, readability 10 µg), respectively. For comparison between accumulated amounts, accumulated amounts per unit amount (% ID/g) were calculated.

[4] = test system: CDDP-resistant A549 (A549 CDDP-r); test: Cytotoxicity test on CDDP-resistant A549 (Test Example 8); conditions: cultivation for 48 hours
Method: Two days before experiment, A549 and CDDP-resistant A549 (A549 CDDP-r) were each seeded in a 96-well plate at a concentration of 1 × 10^5 cells/mL. ^211At-AAMT-OMe or ^211At-AAMT adjusted to a predetermined concentration was added to A549 cells and CDDP-resistant A549 cells, respectively, and the cells were cultured (CO2 5%, 37°C). After the cultivation for 48 hours, Cell counting kit-8 (DOJINDO LABORATORIES) was added. After the addition, the cells were cultured at 37°C for 1 hour, and cell viability was measured using absorbance at 450 nm as an indicator.

[5] = test system: Gem-resistant PANC1 (PANC1 Gem-r); conditions: mouse, in vivo
Method: (§1) Thirty days after administration, the mice were euthanized and tumor masses were isolated. After fat tissue and the like were trimmed off, the wet weights of the isolated tumor masses were measured to make a histogram.

[6] = test system: CDDP-resistant A549 (A549 CDDP-r); conditions: 30 days after administration, 0.5 MBq per mouse, compared with 211At-AAMT
Method: as §1

[7] = test system: human pancreatic cancer cell line, PANC1; test: Therapeutic test on mice subcutaneously transplanted with PANC1 (Test Example 3); format: in vivo
Text: Twenty-eight days after administration, the mice were euthanized and subjected to autopsy, and tumor masses were isolated after organs were examined for abnormalities.

[8] = test system: human pancreatic cancer cell line, PANC1; test: Imaging of mice subcutaneously transplanted with PANC1 (Test Example 2); conditions: 2 hours after administration, 0.5 MBq per mouse via tail vein
Text: Immunodeficient mice (Balb/c-nu/nu, 5-week-old, male) were habituated for 1 week and then subcutaneously transplanted with a human pancreatic cancer cell line (PANC1, 1 × 10^7 cells/mouse). After the transplantation, the mice were observed over time until tumor reached a size large enough for imaging (about 1000 mm^3). […] Two hours after administration, the mice were anesthetized by isoflurane inhalation, and planar images were taken using a γ camera (E-cam, Siemens).

HEK293-hLAT1 cells = molecular target: T1, HEK293-hLAT1 cells (Homo sapiens, UniProt Q01650); test: Cellular uptake test (using HEK293); format: cell-based
T1 construct: expressed in transfected cells; host or cells: HEK293
Method: • Cells to be used: HEK293-Mock, HEK293-hLAT1, HEK293-hLAT2 (HEK293: Human Embryonic Kidney cells 293) • Culture medium to be used: E-MEM (containing 10% FBS, 1% P/S, 1% NEAA)
Two days before a test day, a cell suspension was prepared in such a manner that the concentration of predetermined cells was 1 x 10^5 cells/mL. The cell suspension was seeded in a 24-well multiculture plate at a volume of 0.5 mL per well. On the day of the test, cultures were confirmed to be subconfluent (which refers to a state where 70-80% of the well is covered in density). […]
^211At-AAMT-OMe or ^211At-AAMT was added to the prepared cells at 10 µL/well. […] The cells were lysed by adding 0.1N NaOH to obtain a lysate, and the radioactivity of the lysate was measured using a γ counter. After the radioactivity measurement, the lysate was loaded into a 96-well plate at a volume of 10 µL per well, the protein amount was measured by the BCA method, and the number of cells was corrected based on the protein amount. Absorbance was measured by MultiScanFC (Thermo Fisher). The uptake level of ^211At-AAMT-OMe or ^211At-AAMT into the cells (number of radioactivity counts/protein amount) was calculated.

A549 = test: Therapeutic test on mice subcutaneously transplanted with A549 (Test Example 9); format: in vivo; conditions: A549, 30 days after administration, 0.5 MBq per mouse; compared with 211At-AAMT
Method: The mice were observed over time until engraftment of tumors was confirmed (50 to 100 mm^3), and when the tumors reached a predetermined size, ^211At-AAMT-OMe or ^211At-AAMT diluted with water for injection to 0.5 MBq/0.2 mL per mouse was administered via tail vein. Thirty days after administration, the mice were euthanized and tumor masses were isolated. After fat tissue and the like were trimmed off, the wet weights of the isolated tumor masses were measured to make a histogram.

[9] = test system: gemcitabine-resistant human pancreatic cancer cell line, PANC1 (PANC1 Gem-r); test: Cell viability of gemcitabine-resistant PANC1 in the presence of gemcitabine (Test Example 11); format: cell-based; conditions: PANC1 Gem-r at 30 µg/mL gemcitabine
Method: Gemcitabine (Gem) was added to a human pancreatic cancer cell line, PANC1 at an initial concentration of 100 ng/mL. After 3 days, dead cells were removed, and gemcitabine was again added. Cells that grew like a human pancreatic cancer cell line, PANC1 even in the presence of gemcitabine were isolated and maintained for 3 months while gradually increasing the concentration of gemcitabine in a culture medium.

[10] = test system: CDDP-resistant A549 (A549 CDDP-r); test: Cell viability of CDDP-resistant A549 in the presence of CDDP (Test Example 7); format: cell-based, human; conditions: A549 CDDP-r at 100 µg/mL CDDP
Method: Cisplatin (CDDP) was added to a human lung cancer cell line, A549 at an initial concentration of 1 µg/mL. After 3 days, dead cells were removed, and CDDP was again added. Cells that grew like A549 even in the presence of CDDP were isolated and maintained for 3 months while gradually increasing the concentration of CDDP in a culture medium.

[11] = 10 minutes after administration

T1 sequence (Q01650 whole entry): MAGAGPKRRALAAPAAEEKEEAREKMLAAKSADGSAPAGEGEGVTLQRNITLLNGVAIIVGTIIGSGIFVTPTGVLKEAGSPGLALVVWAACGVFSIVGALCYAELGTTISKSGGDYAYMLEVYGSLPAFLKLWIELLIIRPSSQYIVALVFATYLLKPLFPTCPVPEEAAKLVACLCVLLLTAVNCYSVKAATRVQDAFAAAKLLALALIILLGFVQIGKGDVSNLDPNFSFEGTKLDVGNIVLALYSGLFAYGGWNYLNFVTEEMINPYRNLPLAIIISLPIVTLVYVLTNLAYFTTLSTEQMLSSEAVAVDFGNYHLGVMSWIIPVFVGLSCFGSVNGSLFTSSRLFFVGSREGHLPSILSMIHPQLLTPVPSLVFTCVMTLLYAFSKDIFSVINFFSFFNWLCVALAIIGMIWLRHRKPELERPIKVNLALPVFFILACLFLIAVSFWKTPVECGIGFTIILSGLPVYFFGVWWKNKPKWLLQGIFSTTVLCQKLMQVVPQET
T1 sequence (P08195 102-630 partner): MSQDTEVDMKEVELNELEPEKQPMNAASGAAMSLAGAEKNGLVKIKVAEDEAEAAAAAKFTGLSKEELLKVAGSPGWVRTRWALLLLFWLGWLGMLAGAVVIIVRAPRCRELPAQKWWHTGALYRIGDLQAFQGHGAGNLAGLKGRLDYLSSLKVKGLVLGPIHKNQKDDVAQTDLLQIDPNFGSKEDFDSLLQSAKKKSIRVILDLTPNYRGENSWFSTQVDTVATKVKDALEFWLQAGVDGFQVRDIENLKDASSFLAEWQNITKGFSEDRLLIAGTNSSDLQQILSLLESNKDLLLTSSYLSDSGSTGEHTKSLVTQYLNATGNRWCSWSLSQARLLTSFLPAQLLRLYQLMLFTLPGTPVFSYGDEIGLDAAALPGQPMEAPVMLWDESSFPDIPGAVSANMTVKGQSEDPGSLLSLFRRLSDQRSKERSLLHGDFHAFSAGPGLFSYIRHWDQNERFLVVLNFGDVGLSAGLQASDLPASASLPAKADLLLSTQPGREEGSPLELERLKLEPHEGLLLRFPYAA

CCOc1ccc(C[C@](C)(N)C(=O)O)cc1[At] [^211At-AAMT-OEt, (S)-3-astato(^211At)-O-ethyl-α-methyltyrosine]
uptake speed (PANC1): comparable or superior | uptake level into the cells (number of radioactivity counts/protein amount) (PANC1): comparable or superior | decomposition (TLC) [1]: no decomposition | apparent toxicity induced by administration [2]: not observed | body weight [2]: gently increased | tumor growth inhibiting effect (tumor size) ([2]; compared with the 211At-AAMT-OMe administration group): comparable | tumor accumulation [3, 11]: 4.21 %ID/g | tumor accumulation ([3]; 1 hour after administration): 3.59 %ID/g

COc1ccc(C[C@](C)(N)C(=O)O)cc1[211At] [^211At-AAMT-OMe, (S)-3-astato(^211At)-O-methyl-α-methyltyrosine]
cytotoxicity (cell viability, Cell counting kit-8) [4]: more remarkable cytotoxicity | anti-tumor effect (tumor weight) [5]: higher | tumor growth inhibiting effect (tumor size) [5]: higher | anti-tumor effect (tumor weight) [6]: higher | uptake speed (PANC1): much superior | uptake level into the cells (number of radioactivity counts/protein amount) (PANC1): much superior | decomposition (TLC) [1]: no decomposition | tumor size (wet weight of isolated tumor masses) ([7]; 28 days after administration, 1 MBq per mouse via tail vein, compared with the 211At-AAMT administration group): slightly smaller | mouse body weight ([7]; immediately after administration to 28th day, 1 MBq per mouse, not at a level regarded as a side effect): tends to slightly reduce | accumulation in the tumor (planar image, γ camera) [8]: accumulated in the tumor sites | uptake level into the cells (number of radioactivity counts/protein amount) (HEK293-hLAT1 cells; HEK293-hLAT1 cells (CTL), 30 minutes, comparable to 211At-AAMT): strongly taken up | uptake into the cells in the presence of inhibitor (HEK293-hLAT1 cells; HEK293-hLAT1 cells, in the presence of BCH and AMT): significantly inhibited | apparent toxicity induced by administration [2]: not observed | body weight [2]: gently increased | tumor accumulation [3, 11]: 2.59 %ID/g | tumor accumulation ([3]; 1 hour after administration): 3.78 %ID/g | anti-tumor effect (tumor weight) (A549): comparable

Nc1ccn([C@@H]2O[C@H](CO)[C@@H](O)C2(F)F)c(=O)n1 [gemcitabine, Gemcitabine]
cell viability [9]: still alive

COc1ccc(C[C@@](C)(N)C(=O)O)cc1[At] [(R)-^211At-AAMT-OMe, (R)-3-astato(^211At)-O-methyl-α-methyltyrosine]
decomposition (TLC) [1]: no decomposition

COc1cc(C[C@](C)(N)C(=O)O)ccc1[At] [^211At-AAMPhe-OMe, (S)-α-methyl-4-astato(^211At)-3-methoxyphenylalanine]
decomposition (TLC) [1]: no decomposition | tumor accumulation [3, 11]: 3.77 %ID/g | tumor accumulation ([3]; 1 hour after administration): 6.38 %ID/g

C[C@](N)(Cc1ccc(O)c([At])c1)C(=O)O [^211At-AAMT, astato(^211At)-α-methyl-L-tyrosine, reference compound]
cytotoxicity (cell viability, Cell counting kit-8) [4]: has cytotoxicity | accumulation in the tumor (planar image, γ camera) [8]: accumulated in the tumor sites | tumor accumulation [3, 11]: 0.29 %ID/g | tumor accumulation ([3]; 1 hour after administration): 2.49 %ID/g

[NH2][Pt]([NH2])([Cl])[Cl] [CDDP, Cisplatin]
cell viability [10]: still alive

CCCOc1ccc(C[C@](C)(N)C(=O)O)cc1[At] [^211At-AAMT-OPr, (S)-3-astato(^211At)-O-propyl-α-methyltyrosine]
uptake speed (PANC1): comparable or superior | uptake level into the cells (number of radioactivity counts/protein amount) (PANC1): comparable or superior | decomposition (TLC) [1]: no decomposition | tumor accumulation [3, 11]: 5.91 %ID/g | tumor accumulation ([3]; 1 hour after administration): 9.45 %ID/g
